Results reported in PubChem BioAssay (NCI).
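A five-concentration, 48-hour dose response in 96-well plates underlies each endpoint, interpolated linearly between surrounding concentrations. GI50 = concentration required for 50% inhibition of growth. TGI: concentration producing complete growth inhibition.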

Key:
Assay in all cases: growth of human tumour cells (NCI), 48 h
LOX IMVI melanoma = test system: LOX IMVI melanoma
MALME-3M melanoma = test system: MALME-3M melanoma
MDA-MB-435 = test system: MDA-MB-435
SF-539 CNS = test system: SF-539 CNS
SK-MEL-2 melanoma = test system: SK-MEL-2 melanoma
SK-MEL-28 melanoma = test system: SK-MEL-28 melanoma
SK-MEL-5 melanoma = test system: SK-MEL-5 melanoma
SNB-19 CNS = test system: SNB-19 CNS
SR leukemia = test system: SR leukemia
CCRF-CEM leukemia = test system: CCRF-CEM leukemia

SMILES | GI50 (LOX IMVI melanoma) [µM] | TGI (LOX IMVI melanoma) [µM] | GI50 (MALME-3M melanoma) [µM] | TGI (MALME-3M melanoma) [µM] | GI50 (MDA-MB-435) [µM] | TGI (MDA-MB-435) [µM] | GI50 (SF-539 CNS) [µM] | TGI (SF-539 CNS) [µM] | GI50 (SK-MEL-2 melanoma) [µM] | TGI (SK-MEL-2 melanoma) [µM] | GI50 (SK-MEL-28 melanoma) [µM] | TGI (SK-MEL-28 melanoma) [µM] | GI50 (SK-MEL-5 melanoma) [µM] | TGI (SK-MEL-5 melanoma) [µM] | GI50 (SNB-19 CNS) [µM] | TGI (SNB-19 CNS) [µM] | GI50 (SR leukemia) [µM] | TGI (SR leukemia) [µM] | GI50 (CCRF-CEM leukemia) [µM] | TGI (CCRF-CEM leukemia) [µM]
Cc1cc(I)cc(CN(C)CCCN2CCOCC2)c1O | 29.8 | > 100 | 16.2 | 32.9 | 26 | > 100 | 16.7 | 39.4 | 19.6 | 38.5 | 17.4 | 32.3 | 15.5 | 28.9 | 67.7 | > 100 | 19.6 | 48 |  | 
CCn1c(CO)nn(-c2cc(O[C@@H](C)C(F)(F)F)c(C(=O)Nc3c(F)cccc3Cl)cc2F)c1=O | < 0.01 |  | > 32.2 | > 100 | < 0.0176 | > 100 | < 0.01 | > 100 | > 28.4 | > 100 | > 24.4 | > 100 | < 0.0152 | > 39.1 | < 0.01 | > 100 | < 0.01 | > 43.1 | < 0.01 | > 100
CC(C)CNC(=O)O |  | > 100 |  | > 100 |  | > 100 |  | > 100 |  | > 100 |  | > 100 |  | > 100 |  | > 100 |  | > 100 |  | > 100
[Au+].[Au+].[Au+].[c-]1nccn1Cc1ccccc1.[c-]1nccn1Cc1ccccc1.[c-]1nccn1Cc1ccccc1 | 1.56 | 3.08 | 3.35 | 7.08 | 11.4 | 34.2 | 2.96 | 9.15 | 1.98 | 3.9 | 2.71 | 6.15 | 2.93 | 6.15 | 23.1 | 59 |  |  | 3.71 | > 25.5
C[C@]12CC[C@@H]3c4ccc(O)cc4CC[C@H]3[C@@H]1CC[C@@H]2NS(=O)(=O)c1cccc(F)c1 | 3.09 | 10.8 | 2.52 | 7.76 | 2.58 | 8.77 | 3.91 | 14.1 | 2.8 | 8.14 | 4.81 | 17.8 | 1.66 | 3.15 | 5.5 | 18.3 | 2.35 | 8.28 | 3.28 | 18.6
CCC(C)(C)c1ccc(OCCCCCCN2CCNCC2)cc1 | 1.76 | 3.21 | 1.94 | 3.6 | 1.54 | 3.09 | 1.85 | 3.65 | 2.19 | 4.74 | 1.74 | 3.77 | 1.76 | 3.24 |  |  | 1.25 | 3.71 | 1.43 | 4.64
Nc1nc(SN=Nc2ccc(S(N)(=O)=O)cc2)c2[nH]cnc2n1 | 0.219 | 12.6 | 1.87 | > 60.6 | 0.39 | > 100 | 0.552 | > 100 | 1.24 | > 100 | 2.29 | > 52.5 | 1.26 | 5.97 | > 78.6 | > 100 | 0.186 | > 100 | 0.268 | > 100
O=C(Nc1ccc(CO)cc1)c1coc2ccccc2c1=O | > 100 | > 100 | > 100 | > 100 | > 100 | > 100 | > 100 | > 100 |  |  | > 100 | > 100 | > 100 | > 100 | > 100 | > 100 | > 100 | > 100 | > 100 | > 100
COc1ccc(OC)c2c(/C=C/c3ccc(N(C)C)cc3)ccnc12 |  | > 10 |  | > 10 |  | > 10 |  | 6.07 |  | > 10 |  | > 10 |  | > 10 |  | > 10 |  |  |  | 9.28
Cc1cc(S(=O)(=O)N/N=C(\Sc2cc(Cl)c(C)cc2S(N)(=O)=O)c2ccc(Cl)cc2)c(Cl)cc1Cl | 30.8 | 99.6 |  |  | > 100 | > 100 | 28.6 | 61.5 | > 100 | > 100 | > 100 | > 100 | > 100 | > 100 | > 100 | > 100 | 64.2 | > 100 | 36.8 | > 100
COc1ccc(-c2oc3cc(O)c(OC)c(O)c3c(=O)c2OC)cc1O | 0.0766 | > 100 |  |  | 0.025 | 0.0674 | 0.0445 | 21.9 | 0.536 | > 100 | 0.0775 | > 100 | 0.0786 | 2.67 | 0.189 | > 100 | 0.039 | > 100 | 0.343 | > 100
COc1ccc2[nH]c3c4c(ccc3c2c1)C(=O)C=CC4=O |  | 24.1 |  | 17.4 |  | 66.5 |  | 32.2 |  | 28.5 |  | 20.2 |  | 40.1 |  | > 79.1 |  | 2.79 |  | 6.55
C=CCSS/C=C/CS(=O)CC=C (configuration not stated) |  | 29.9 |  | > 100 |  | 37.3 |  | 51.6 |  | 97.6 |  | 49.9 |  | > 100 |  | > 100 |  | > 55.6 |  | > 100
O=C(CSC(c1ccccc1)c1ccccc1)N/N=C/c1ccc(Cl)cc1Cl | 27.1 | 97.4 | 16 | 42 | 29.6 | 79.2 | 57.7 | > 100 | 18.4 | 55.8 |  |  | 18.1 | 32.7 |  |  | 17 | 38.8 | 31.5 | > 100
